Data published in patent US7538241B2, “Hsp90 family protein inhibitors” (Kyowa Hakko Kogyo Co., Ltd., priority 2003, dated 2009).

System: human chronic myelocytic leukemia-derived K562 cells
Experiment: Cell growth inhibition test with K562 cells (WST-1)
Assay type: cell-based
Settings: 72 hours, read-out: 50% growth inhibition concentration (GI50)
In short: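 K562 cells at 1500 cells/well in 10% FCS RPMI 1640, pre-incubated 5 h, then exposed to serially diluted compound for 72 h at 37° C, 5% CO2. Viability read by WST-1 after 2 h (absorbance 450/655 nm); GI50 reported.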

Compound | GI50 [µM]
CCc1c(O)cc(O)c(-c2cccc(F)c2)c1CC1O[C@@H](CO)[C@H](CO)O1 [Compound 282, 5-{[(4S,5S)-4,5-bis(hydroxymethyl)-1,3-dioxolan-2-yl]methyl}-6-ethyl-4-(3-fluorophenyl)benzene-1,3-diol] | ≤ 50
CCc1c(O)cc(O)c(-c2cc(C)cc(C)c2)c1CC1O[C@@H](CO)[C@H](CO)O1 [Compound 283, 5-{[(4S,5S)-4,5-bis(hydroxymethyl)-1,3-dioxolan-2-yl]methyl}-4-(3,5-dimethylphenyl)-6-ethylbenzene-1,3-diol] | ≤ 50
CCc1c(O)cc(O)c(-c2cccc(NC(C)=O)c2)c1CC1O[C@@H](CO)[C@H](CO)O1 [Compound 284, 4-[3-(acetylamino)phenyl]-5-{[(4S,5S)-4,5-bis(hydroxymethyl)-1,3-dioxolan-2-yl]methyl}-6-ethylbenzene-1,3-diol] | ≤ 50
OC[C@@H]1OC(Cc2c(Cl)c(O)cc(O)c2-c2ccccc2)O[C@H]1CO [Compound 285, 5-{[(4S,5S)-4,5-bis(hydroxymethyl)-1,3-dioxolan-2-yl]methyl}-6-chloro-4-phenylbenzene-1,3-diol] | ≤ 50
CCc1c(O)cc(O)c(-c2cccc(OC)c2)c1CC1O[C@H](CO)[C@@H](CO)O1 [Compound 286, 5-{[(4R,5R)-4,5-bis(hydroxymethyl)-1,3-dioxolan-2-yl]methyl}-6-ethyl-4-(3-methoxyphenyl)benzene-1,3-diol] | ≤ 50
CC(=O)c1c(O)cc(O)c(-c2ccccc2)c1CC1O[C@@H](CO)[C@H](CO)O1 [Compound 287, 6-Acetyl-5-{[(4S,5S)-4,5-bis(hydroxymethyl)-1,3-dioxolan-2-yl]methyl}-4-phenylbenzene-1,3-diol] | ≤ 50
CCc1c(O)cc(O)c(-c2cccc(C(N)=O)c2)c1CC1O[C@@H](CO)[C@H](CO)O1 [Compound 288, 5-{[(4S,5S)-4,5-Bis(hydroxymethyl)-1,3-dioxolan-2-yl]methyl}-6-ethyl-4-(3-carbamoylphenyl)benzene-1,3-diol] | ≤ 50
CCc1c(O)cc(O)c(-c2cccc(C(=O)NC)c2)c1CC1O[C@@H](CO)[C@H](CO)O1 [Compound 289, 5-{[(4S,5S)-4,5-Bis(hydroxymethyl)-1,3-dioxolan-2-yl]methyl}-6-ethyl-4-[3-(methylcarbamoyl)phenyl]benzene-1,3-diol] | ≤ 50
CCc1c(O)cc(O)c(-c2cccc(C(=O)N(C)C)c2)c1CC1O[C@@H](CO)[C@H](CO)O1 [Compound 290, 5-{[(4S,5S)-4,5-Bis(hydroxymethyl)-1,3-dioxolan-2-yl]methyl}-4-[3-(dimethylcarbamoyl)phenyl]-6-ethylbenzene-1,3-diol] | ≤ 50
CCc1c(O)cc(O)c(-c2ccc(F)c(C)c2)c1CC1O[C@H](CO)[C@@H](CO)O1 [Compound 291, 5-{[(4R,5R)-4,5-bis(hydroxymethyl)-1,3-dioxolan-2-yl]methyl}-6-ethyl-4-(4-fluoro-3-methylphenyl)benzene-1,3-diol] | ≤ 50
CCc1c(O)cc(O)c(-c2cccc(C(=O)N(C)C)c2)c1CC1O[C@H](CO)[C@@H](CO)O1 [Compound 292, 5-{[(4R,5R)-4,5-bis(hydroxymethyl)-1,3-dioxolan-2-yl]methyl}-4-[3-(dimethylcarbamoyl)phenyl]-6-ethylbenzene-1,3-diol] | ≤ 50
CCc1c(O)cc(O)c(-c2ccc(F)c(Cl)c2)c1CC1O[C@H](CO)[C@@H](CO)O1 [Compound 293, 5-{[(4R,5R)-4,5-bis(hydroxymethyl)-1,3-dioxolan-2-yl]methyl}-4-(3-chloro-4-fluorophenyl)-6-ethylbenzene-1,3-diol] | ≤ 50
CCc1c(O)cc(O)c(-c2cccc(C(=O)NC)c2)c1CC1O[C@H](CO)[C@@H](CO)O1 [Compound 294, 5-{[(4R,5R)-4,5-Bis(hydroxymethyl)-1,3-dioxolan-2-yl]methyl}-6-ethyl-4-[3-(methylcarbamoyl)phenyl]benzene-1,3-diol] | ≤ 50
CCc1c(O)cc(O)c(-c2cccc(C(N)=O)c2)c1CC1O[C@H](CO)[C@@H](CO)O1 [Compound 295, 5-{[(4R,5R)-4,5-bis(hydroxymethyl)-1,3-dioxolan-2-yl]methyl}-4-(3-carbamoylphenyl)-6-ethylbenzene-1,3-diol] | ≤ 50
CCc1c(O)cc(O)c(-c2cccc(F)c2)c1CC1O[C@H](CO)[C@@H](CO)O1 [Compound 296, 5-{[(4R,5R)-4,5-bis(hydroxymethyl)-1,3-dioxolan-2-yl]methyl}-6-ethyl-4-(3-fluorophenyl)benzene-1,3-diol] | ≤ 50
CCc1c(O)cc(O)c(-c2cccc(O)c2)c1CC1O[C@H](CO)[C@@H](CO)O1 [Compound 298, 5-{[(4R,5R)-4,5-Bis(hydroxymethyl)-1,3-dioxolan-2-yl]methyl}-6-ethyl-4-(3-hydroxyphenyl)benzene-1,3-diol] | ≤ 50
CCc1c(O)cc(O)c(-c2ccc(F)c(F)c2)c1CC1O[C@@H](CO)[C@H](CO)O1 [Compound 299, 5-{[(4S,5S)-4,5-bis(hydroxymethyl)-1,3-dioxolan-2-yl]methyl}-4-(3,4-difluorophenyl)-6-ethylbenzene-1,3-diol] | ≤ 50
CCc1c(O)cc(O)c(-c2ccc(F)c(Cl)c2)c1CC1O[C@@H](CO)[C@H](CO)O1 [Compound 301, 5-{[(4S,5S)-4,5-Bis(hydroxymethyl)-1,3-dioxolan-2-yl]methyl}-4-(3-chloro-4-fluorophenyl)-6-ethylbenzene-1,3-diol] | ≤ 50

Compound | GI50 [µM]
CCc1c(O)cc(O)c(-c2cccc(C(=O)NCCOC)c2)c1CC1O[C@H](CO)[C@@H](CO)O1 [Compound 303, 5-{[(4R,5R)-4,5-Bis(hydroxymethyl)-1,3-dioxolan-2-yl]methyl}-6-ethyl-4-[3-(2-methoxyethyl)carbamoylphenyl]benzene-1,3-diol] | ≤ 50
CCc1c(O)cc(O)c(-c2cccc(C(=O)NCCO)c2)c1CC1O[C@H](CO)[C@@H](CO)O1 [Compound 304, 5-{[(4R,5R)-4,5-Bis(hydroxymethyl)-1,3-dioxolan-2-yl]methyl}-6-ethyl-4-[3-(2-hydroxyethyl)carbamoylphenyl]benzene-1,3-diol] | ≤ 50
CCc1c(O)cc(O)c(-c2cccc(C(=O)NC3CC3)c2)c1CC1O[C@H](CO)[C@@H](CO)O1 [Compound 305, 5-{[(4R,5R)-4,5-Bis(hydroxymethyl)-1,3-dioxolan-2-yl]methyl}-4-[3-(2-cyclopropylcarbamoyl)phenyl]-6-ethylbenzene-1,3-diol] | ≤ 50
CCCNC(=O)c1cccc(-c2c(O)cc(O)c(CC)c2CC2O[C@H](CO)[C@@H](CO)O2)c1 [Compound 306, 5-{[(4R,5R)-4,5-Bis(hydroxymethyl)-1,3-dioxolan-2-yl]methyl}-6-ethyl-4-[3-(propylcarbamoyl)phenyl]benzene-1,3-diol] | ≤ 50
CCc1c(O)cc(O)c(-c2cccc(O)c2)c1CC1O[C@H](COC)[C@@H](COC)O1 [Compound 307, 5-{[(4R,5R)-4,5-Bis(methoxymethyl)-1,3-dioxolan-2-yl]methyl}-6-ethyl-4-(3-hydroxyphenyl)benzene-1,3-diol] | ≤ 50
CCc1c(O)cc(O)c(-c2ccccc2)c1CC1O[C@H](COC)[C@@H](COC)O1 [Compound 308, 5-{[(4R,5R)-4,5-Bis(methoxymethyl)-1,3-dioxolan-2-yl]methyl}-6-ethyl-4-phenylbenzene-1,3-diol] | ≤ 50
CCc1c(O)cc(O)c(-c2ccc(OC)c(OC)c2)c1CCOCCO [Compound 309, 6-Ethyl-5-[2-(2-hydroxyethoxy)ethyl]-4-(3,4-dimethoxyphenyl)benzene-1,3-diol] | ≤ 50
CC(=O)c1c(O)cc(O)c(-c2cccc(O)c2)c1CCOCCO [Compound 310, 1-{2,4-Dihydroxy-6-[2-(2-hydroxyethoxy)ethyl]-5-(3-hydroxyphenyl)phenyl}ethanone] | ≤ 50
CCc1c(O)cc(O)c(-c2ccc(F)c(Cl)c2)c1CCOCCO [Compound 312, 4-(3-Chloro-4-fluorophenyl)-6-ethyl-5-[2-(2-hydroxyethoxy)ethyl]benzene-1,3-diol] | ≤ 50
CCc1c(O)cc(O)c(-c2ccc(F)c(C)c2)c1CCOCCO [Compound 314, 6-Ethyl-4-(4-fluoro-3-methylphenyl)-5-[2-(2-hydroxyethoxy)ethyl]benzene-1,3-diol] | ≤ 50
CCc1c(O)cc(O)c(-c2ccccc2)c1Cc1n[nH]c(=O)o1 [Compound 315, 5-[(2-ethyl-3,5-dihydroxy-6-phenylphenyl)methyl]-3H-1,3,4-oxadiazol-2-one] | ≤ 50
CCc1c(O)cc(O)c(-c2ccccc2)c1CCN1CCCC1CO (centres unmarked) [Compound 316, 6-Ethyl-5-{2-[2-(hydroxymethyl)pyrrolidin-1-yl]ethyl}-4-phenylbenzene-1,3-diol] | ≤ 50
CCc1c(O)cc(O)c(-c2ccccc2)c1Cc1nn(CCO)c(=O)o1 [Compound 318, 5-[(2-Ethyl-3,5-dihydroxy-6-phenylphenyl)methyl]-3-(2-hydroxyethyl)-3H-1,3,4-oxadiazol-2-one] | ≤ 50
CCc1c(O)cc(O)c(-c2ccccc2)c1CCN1C(=O)OCC1C(=O)OC (centres unmarked) [Compound 319, Methyl 3-[2-(2-ethyl-3,5-dihydroxy-6-phenylphenyl)ethyl]-2-oxo-1,3-oxazolidine-4-carboxylate] | ≤ 50
CCc1c(O)cc(O)c(-c2ccccc2)c1CCN1CCC(O)C1 (centres unmarked) [Compound 321, 6-Ethyl-5-[2-(3-hydroxypyrrolidin-1-yl)ethyl]-4-phenylbenzene-1,3-diol] | ≤ 50
CCc1c(O)cc(O)c(-c2ccccc2)c1CC(=O)N(CCO)CCCOC [Compound 322, 2-(2-Ethyl-3,5-dihydroxy-6-phenylphenyl)-N-(2-hydroxyethyl)-N-(3-methoxypropyl)acetamide] | ≤ 50
CCc1c(O)cc(O)c(-c2cccc(OC)c2)c1Cc1nn(CCO)c(=O)o1 [Compound 323, 5-{[2-Ethyl-3,5-dihydroxy-6-(3-methoxyphenyl)phenyl]methyl}-3-(2-hydroxyethyl)-3H-1,3,4-oxadiazol-2-one] | ≤ 50
